Patent publication US20230027295A1, “FXIA INHIBITORS AND PREPARATION METHOD THEREFOR AND PHARMACEUTICAL USE THEREOF” (Shenzhen Salubris Pharmaceuticals Co., Ltd., priority 2019, published 2023)

Key:
CYP2D6 = biological target: T1, CYP2D6 (Homo sapiens, UniProt P10635); assay: CYP enzyme inhibition in liver microsomes: CYP2D6; format: in vitro ADME; settings: 0.2 mg/mL liver microsomes
T1 construct: Liver microsomes (150-donor, Corning, Cat. 452117; Lot; 38292), NADPH; tissue Corning 452117; host or cells: liver microsomes, 150-donor pool
T1 sequence (P10635 whole entry): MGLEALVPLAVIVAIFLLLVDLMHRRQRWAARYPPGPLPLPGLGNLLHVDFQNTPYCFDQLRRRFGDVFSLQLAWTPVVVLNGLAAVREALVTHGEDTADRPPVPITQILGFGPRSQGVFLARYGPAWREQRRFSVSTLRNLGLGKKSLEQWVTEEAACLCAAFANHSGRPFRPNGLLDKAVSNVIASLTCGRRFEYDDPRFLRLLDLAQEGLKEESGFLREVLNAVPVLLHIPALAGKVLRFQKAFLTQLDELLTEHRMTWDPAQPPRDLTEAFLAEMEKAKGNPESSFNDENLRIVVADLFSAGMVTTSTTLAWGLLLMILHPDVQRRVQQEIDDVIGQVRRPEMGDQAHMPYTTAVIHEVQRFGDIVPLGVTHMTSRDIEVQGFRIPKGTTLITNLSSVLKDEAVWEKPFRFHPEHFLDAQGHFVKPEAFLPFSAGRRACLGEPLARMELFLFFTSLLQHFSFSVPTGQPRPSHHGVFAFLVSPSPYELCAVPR
Method: (§1) Example 55: Investigation of CYP Enzyme Inhibition by the Compounds of the Present Invention Liver microsomes (150-donor, Corning, Cat. 452117; Lot. 38292), NADPH. A 0.2 mg/mL microsome system was prepared, each test substance and substrate were added, and the final concentration of the test substance was 50 μM. After pre-incubating for 8 min, 10 mM NADPH was added to start the reaction, and the final concentration of NADPH was 1 mM. After a period of incubation, an internal standard such as methanol was added to stop the reaction. The amount of substrate metabolites generated in each reaction well was detected. Data processing: Taking the metabolite generation in the blank well as 100%, the reduction of metabolite generation in each well of the test substance was calculated, and the inhibition rate was calculated.

CYP2C19 = biological target: T2, CYP2C19 (Homo sapiens, UniProt P33261); assay: CYP enzyme inhibition in liver microsomes: CYP2C19; format: in vitro ADME; settings: 0.2 mg/mL liver microsomes
T2 construct: Liver microsomes (150-donor, Corning, Cat. 452117; Lot; 38292), NADPH; tissue Corning 452117; host or cells: liver microsomes, 150-donor pool
T2 sequence (P33261 whole entry): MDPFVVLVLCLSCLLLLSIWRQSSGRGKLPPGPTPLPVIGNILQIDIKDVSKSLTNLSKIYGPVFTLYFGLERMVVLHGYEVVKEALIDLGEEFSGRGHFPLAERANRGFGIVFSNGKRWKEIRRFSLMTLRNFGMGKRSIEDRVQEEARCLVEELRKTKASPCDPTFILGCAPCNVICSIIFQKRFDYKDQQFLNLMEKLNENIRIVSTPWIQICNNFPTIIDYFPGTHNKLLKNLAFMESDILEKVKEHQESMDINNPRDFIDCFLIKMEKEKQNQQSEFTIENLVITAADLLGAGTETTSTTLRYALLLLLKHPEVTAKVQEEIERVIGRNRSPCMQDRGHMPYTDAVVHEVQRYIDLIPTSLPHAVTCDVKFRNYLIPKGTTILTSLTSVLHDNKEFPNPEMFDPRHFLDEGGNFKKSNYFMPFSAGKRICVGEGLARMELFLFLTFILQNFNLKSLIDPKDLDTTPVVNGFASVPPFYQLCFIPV
Method: as §1

CYP2C8 = biological target: T3, CYP2C8 (Homo sapiens, UniProt P10632); assay: CYP enzyme inhibition in liver microsomes: CYP2C8; format: in vitro ADME; settings: 0.2 mg/mL liver microsomes
T3 construct: Liver microsomes (150-donor, Corning, Cat. 452117; Lot; 38292), NADPH; tissue Corning 452117; host or cells: liver microsomes, 150-donor pool
T3 sequence (P10632 1-490): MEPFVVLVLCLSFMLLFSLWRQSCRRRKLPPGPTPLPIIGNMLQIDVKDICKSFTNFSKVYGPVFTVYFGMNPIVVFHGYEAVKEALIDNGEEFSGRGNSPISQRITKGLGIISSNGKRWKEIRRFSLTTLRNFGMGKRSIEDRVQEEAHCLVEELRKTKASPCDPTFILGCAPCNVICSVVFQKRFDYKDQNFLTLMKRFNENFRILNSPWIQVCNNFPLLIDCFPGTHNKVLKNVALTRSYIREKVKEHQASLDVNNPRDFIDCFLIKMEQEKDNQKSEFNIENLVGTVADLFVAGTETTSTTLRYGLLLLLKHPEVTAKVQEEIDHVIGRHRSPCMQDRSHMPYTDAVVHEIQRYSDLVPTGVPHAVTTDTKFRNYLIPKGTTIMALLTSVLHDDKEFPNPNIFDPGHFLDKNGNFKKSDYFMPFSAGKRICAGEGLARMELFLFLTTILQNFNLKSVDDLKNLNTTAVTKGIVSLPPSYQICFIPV
Method: as §1

CYP3A5 = biological target: T4, CYP3A5 (Homo sapiens, UniProt P20815); assay: CYP enzyme inhibition in liver microsomes: CYP3A5; format: in vitro ADME; settings: 0.2 mg/mL liver microsomes
T4 construct: Liver microsomes (150-donor, Corning, Cat. 452117; Lot; 38292), NADPH; tissue Corning 452117; host or cells: liver microsomes, 150-donor pool
T4 sequence (P20815 whole entry): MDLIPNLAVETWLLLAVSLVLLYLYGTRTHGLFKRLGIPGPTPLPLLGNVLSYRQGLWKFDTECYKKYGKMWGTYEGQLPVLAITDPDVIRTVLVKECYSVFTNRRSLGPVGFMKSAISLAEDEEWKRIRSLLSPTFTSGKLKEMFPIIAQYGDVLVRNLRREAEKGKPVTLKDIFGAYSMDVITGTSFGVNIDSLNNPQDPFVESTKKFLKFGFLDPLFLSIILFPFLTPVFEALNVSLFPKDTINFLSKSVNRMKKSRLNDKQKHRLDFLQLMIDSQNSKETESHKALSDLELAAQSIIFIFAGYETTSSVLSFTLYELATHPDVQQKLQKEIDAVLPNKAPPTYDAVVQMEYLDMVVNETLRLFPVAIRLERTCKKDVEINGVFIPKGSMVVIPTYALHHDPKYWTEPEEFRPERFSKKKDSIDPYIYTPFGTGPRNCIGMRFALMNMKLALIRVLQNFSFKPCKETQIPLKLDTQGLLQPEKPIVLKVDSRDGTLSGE
Method: as §1

CYP3A4 = biological target: T5, CYP3A4 (Homo sapiens, UniProt P08684); assay: CYP enzyme inhibition in liver microsomes: CYP3A4; format: in vitro ADME; settings: 0.2 mg/mL liver microsomes
T5 construct: Liver microsomes (150-donor, Corning, Cat. 452117; Lot; 38292), NADPH; tissue Corning 452117; host or cells: liver microsomes, 150-donor pool
T5 sequence (P08684 whole entry): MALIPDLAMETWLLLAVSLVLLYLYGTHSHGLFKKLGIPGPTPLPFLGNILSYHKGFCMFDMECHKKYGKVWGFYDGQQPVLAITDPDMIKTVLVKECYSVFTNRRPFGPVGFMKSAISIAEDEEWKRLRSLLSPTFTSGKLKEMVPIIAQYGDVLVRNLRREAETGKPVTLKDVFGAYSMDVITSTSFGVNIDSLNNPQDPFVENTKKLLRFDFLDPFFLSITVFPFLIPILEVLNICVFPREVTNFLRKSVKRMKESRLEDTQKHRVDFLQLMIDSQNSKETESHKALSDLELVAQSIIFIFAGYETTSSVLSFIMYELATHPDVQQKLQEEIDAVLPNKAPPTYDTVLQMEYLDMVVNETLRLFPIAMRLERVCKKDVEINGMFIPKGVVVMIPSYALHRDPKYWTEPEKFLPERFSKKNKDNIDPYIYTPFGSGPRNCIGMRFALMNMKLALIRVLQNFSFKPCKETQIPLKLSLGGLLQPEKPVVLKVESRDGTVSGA
Method: Example 55: Investigation of CYP Enzyme Inhibition by the Compounds of the Present Invention Liver microsomes (150-donor, Corning, Cat. 452117; Lot. 38292), NADPH. […] After pre-incubating for 8 min, 10 mM NADPH was added to start the reaction, and the final concentration of NADPH was 1 mM. After a period of incubation, an internal standard such as methanol was added to stop the reaction. The amount of substrate metabolites generated in each reaction well was detected. […]

Human Factor Xa = biological target: T6, Human Factor Xa (Homo sapiens, UniProt P00742); assay: Selectivity to coagulation factors: hFXa (substrate S-2222); format: biochemical
T6 construct: hFXa: Human Factor Xa: 71nkat; purchased 71nkat
T6 sequence (P00742 235-488 limits assumed): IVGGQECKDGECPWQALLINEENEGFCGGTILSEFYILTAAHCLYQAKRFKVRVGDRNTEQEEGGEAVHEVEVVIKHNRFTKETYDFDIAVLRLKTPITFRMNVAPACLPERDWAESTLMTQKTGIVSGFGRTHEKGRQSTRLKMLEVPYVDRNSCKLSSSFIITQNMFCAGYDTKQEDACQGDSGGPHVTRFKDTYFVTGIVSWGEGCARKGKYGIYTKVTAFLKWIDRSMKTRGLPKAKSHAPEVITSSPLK
T6 sequence (P00742 41-179 partner limits assumed): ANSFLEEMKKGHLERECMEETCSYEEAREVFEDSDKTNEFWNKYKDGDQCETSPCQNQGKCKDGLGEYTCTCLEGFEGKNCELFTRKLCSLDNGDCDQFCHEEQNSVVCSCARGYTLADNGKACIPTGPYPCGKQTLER
Method: (§2) Example 52: Investigation of the Selectivity of the Compounds of the Present Invention to Coagulation Factors
(§3) Enzyme: hFXa: Human Factor Xa: 71nkat. hFIIa: HT5146L. hFVIIa: Human Factor VIIa: hFVIIa 4591L. kallikrein: LOT180223.
hFXa buffer: 100 mM NaCl, 5 mM CaCl2, 33% ethylene glycol, 50 mM Tris (pH 7.5).
(§4) 10 mM test compound dissolved in 100% DMSO was diluted with 100% DMSO to 1000, 200, 40, 8, 1.6 μM. 98 μL of enzyme solution was added to each well of a 96-well plate, while 98 μL of buffer was added to the blank wells. 2 μL of compounds of different concentrations were added, while the blank and control wells were added with DMSO instead. They were mixed with a shaker, and incubated at 37° C. for 20 min.
(§5) The concentrations of hFXa and S-2222™ were FXa (1:28) and 800 μmol/L, respectively. The concentrations of hFIIa and S-2238™ were hFIIa (0.06 U/ml) and 500 μmol/L, respectively. The concentrations of hFVIIa and S-2288™ were hFVIIa (80 nM) and 1600 μmol/L, respectively. The concentrations of kallikrein and substrate were kallikrein (20 nM) and 1600 μmol/L, respectively.
(§6) Finally, 100 μL substrate was added to each well, and its absorbance was measured at 405 nm.

CYP2B6 = biological target: T7, CYP2B6 (Homo sapiens, UniProt P20813); assay: CYP enzyme inhibition in liver microsomes: CYP2B6; format: in vitro ADME; settings: 0.2 mg/mL liver microsomes
T7 construct: Liver microsomes (150-donor, Corning, Cat. 452117; Lot; 38292), NADPH; tissue Corning 452117; host or cells: liver microsomes, 150-donor pool
T7 sequence (P20813 1-491): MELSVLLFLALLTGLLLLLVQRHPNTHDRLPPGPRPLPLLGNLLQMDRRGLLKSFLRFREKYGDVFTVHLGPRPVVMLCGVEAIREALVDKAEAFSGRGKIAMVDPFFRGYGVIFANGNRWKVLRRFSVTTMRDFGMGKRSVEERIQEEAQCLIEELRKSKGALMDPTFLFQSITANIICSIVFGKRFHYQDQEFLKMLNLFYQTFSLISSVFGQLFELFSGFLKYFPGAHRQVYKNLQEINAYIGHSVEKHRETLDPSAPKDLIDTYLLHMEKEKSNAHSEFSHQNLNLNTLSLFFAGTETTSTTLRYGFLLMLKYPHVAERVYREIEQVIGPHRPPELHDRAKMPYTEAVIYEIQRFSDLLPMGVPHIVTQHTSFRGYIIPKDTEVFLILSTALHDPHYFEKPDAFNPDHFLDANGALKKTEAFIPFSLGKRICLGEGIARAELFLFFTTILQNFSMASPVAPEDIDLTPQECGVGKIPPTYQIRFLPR
Method: as §1

hFIIa = biological target: T8, hFIIa (Homo sapiens, UniProt P00734); assay: Selectivity to coagulation factors: hFIIa (substrate S-2238); format: biochemical
T8 construct: purchased HT5146L
Method: as §2, §3, §4, §5, §6

Row | Structure (SMILES) | IC50 (CYP2D6) | IC50 (CYP2C19) | IC50 (CYP2C8) | IC50 (CYP3A5) | IC50 (CYP3A4) | IC50 (Human Factor Xa) | IC50 (CYP2B6) | IC50 (hFIIa)
1 | COc1nn([C@@H](Cc2ccccc2)C(=O)Nc2ccc(C(=O)O)cc2)c(=O)cc1-c1cc(Cl)ccc1C(C)=O [Example 19, (S)-4-(2-(4-(2-acetyl-5-chlorophenyl)-3-methoxy-6-oxopyridazin-1(6H)-yl)-3-phenylpropanamido)benzoic acid] | > 50 µM | > 50 µM | ~50 µM | > 50 µM | > 50 µM | > 100 µM | > 50 µM | > 100 µM
2 | CCC(=O)c1ccc(Cl)cc1-c1cc(=O)n([C@@H](Cc2ccccc2)C(=O)Nc2ccc(C(=O)O)cc2)nc1OC [Example 32] | > 50 µM | > 50 µM | ~30 µM | > 50 µM | > 50 µM | > 100 µM | > 50 µM | > 100 µM
